The values below come from US5508450A, “Benzopyran derivatives” (Ono Pharmaceutical Co., Ltd., priority 1989, dated 1996).

Each structure is given as a SMILES string. Where a name gives a salt, the structure may show the parent alone.

For this assay, the system named is Lysozyme (dimer formation with fructose). The assay is described as follows: Inhibitory activity on Maillard reaction: formation of lysozyme dimer (lysozyme + fructose, SDS-PAGE, densitometer). The class given is biochemical. The following applies: lysozyme 10 mg/ml, fructose 100 mM, 0.2M sodium phosphate buffer pH 7.4, 37° C., 3 days. On the procedure:
The inhibitory activity on Maillard reaction of the compounds of the present invention has confirmed by the screening system mentioned below. Lysozyme (10 mg/ml) and fructose (100 mM) were dissolved in 0.2M sodium phosphatic buffer solution (PH 7.4). The solution was incubated at a temperature of 37° C. for 3 days. A given volume of the reaction solution was separated using SDS-PAGE by the electrophoresis. After the electrophoresis, the SDS-PAGE was dyed by 0.2% Coomassie Brilliant Blue R-250 and then the dimer was determined by densitometer. The compounds of the present invention were added before incubation and the inhibitory activity of them against the formation of the dimer was examined in various concentrations and IC50 values were calculated.
As for `Cc1c(C)c2c(c(C)c1O)CCC(C)(CCCCOc1ccc(NC(=O)c3ccc(NC(=N)N)cc3)cc1)O2` (stereo not shown) [9 (a), N-[4-[4-(6-hydroxy-2,5,7,8-tetramethyl-3,4-dihydro-2H-benzo[1,2-b]pyran-2-yl)-butoxy]phenyl]-4-guanidinobenzamidehydrochloride], the IC50 (usually the midpoint of a concentration-inhibition curve) came out at 10 µM.
Regarding `Cc1c(C)c2c(c(C)c1O)CCC(C)(CCOc1ccc(CCCOc3ccc(NC(=N)N)cc3)cc1)O2` (stereo not shown) [27 (f), 4-guanidinophenyl 3-[4-[2-(6-hydroxy-2,5,7,8-tetramethyl-3,4-dihydro-2H-benzo[1,2-b]-pyran-2-yl)ethoxy]phenyl]-propyl ether hydrochloride], the IC50 came out at 5.6 µM.
Next, `Cc1c(C)c2c(c(C)c1O)CCC(C)(CCSc1ccc(NC(=O)CSc3ccc(NC(=N)N)cc3)cc1)O2` (stereo not shown) [7 (t), N-[4-[2-(6-hydroxy-2,5,7,8-tetramethyl-3,4-dihydro-2H-benzo[1,2-b]pyran-2-yl)-ethylthio]phenyl]-4-guanidinophenylthioacetamidehydrochloride]: 17 µM; `Cc1c(C)c2c(c(C)c1O)CCC(C)(CCOC(=O)c1cccc(NC(=N)N)c1)O2` (stereo not shown) [1 (i), 2-(6-hydroxy-2,5,7,8-tetramethyl-3,4-dihydro-2H-benzo[1,2-b]pyran-2-yl)ethyl3-quanidinobenzoate hydrochloride]: 100 µM.
With `Cc1c2c(c3ccccc3c1O)OC(C)(CCNC(=O)c1cccc(NC(=N)N)c1)CC2` (stereo not shown) [2 (f), hydrochloride] the figure was 150 µM.
Next, `Cc1c(C)c2c(c(C)c1O)CCC(C)(CCSCCOc1ccc(NC(=N)N)cc1)O2` (stereo not shown) [27 (b), 4-guanidinophenyl 2-[2-(6-hydroxy-2,5,7,8-tetramethyl-3,4-dihydro-2H-benzo[1,2-b]-pyran-2-yl)ethylthio]ethyl ether hydrochloride]: 190 µM.
For the compound `Cc1c(C)c2c(c(C)c1O)CCC(C)(CCCCCCSc1ccc(NC(=N)N)cc1)O2` (stereo not shown) [Example 29, 4-guanidinophenyl 6-(6-hydroxy-2,5,7,8-tetramethyl-3,4-dihydro-2H-benzo[1,2-b]pyran-2-yl)-n-hexyl thioether hydrochloride], the concentration for half-maximal inhibition (IC50) was found to be 7.5 µM.
With `Cc1c(C)c2c(c(C)c1O)CCC(C)(CCOc1ccc(NC(=N)N)cc1)O2` (stereo not shown) [Example 5, 4-guanidinophenyl 2-(6-hydroxy-2,5,7,8-tetramethyl-3,4-dihydro-2H-benzo[1,2-b]pyran-2-yl)ethyl ether hydrochloride] the figure was 320 µM; with `Cc1cc(OCCC2(C)CCc3c(C)c(O)c(C)c(C)c3O2)ccc1NC(=N)N` (stereo not shown) [5 (c), 3-methyl-4-guanidino-phenyl 2-(6-hydroxy-2,5,7,8-tetramethyl-3,4-dihydro-2H-benzo[1,2-b]pyran-2-yl)ethyl ether hydrochloride], 500 µM; with `Cc1c2c(c3ccccc3c1O)OC(C)(CCCCSc1ccc(NC(=O)c3ccc(NC(=N)N)cc3)cc1)CC2` (stereo not shown) [9 (j), N-[4-[4-(2,5-dimethyl-6-hydroxy-3,4-dihydro-2H-naphtho[1,2-b]pyran-2-yl)-butylthio]phenyl]-4-guanidinobenzamidehydrochloride], 4.8 µM.
Next, `Cc1c(C)c2c(c(C)c1O)CCC(C)(CCN(C)C(=O)/C=C/c1ccc(NC(=N)N)cc1)O2` (stereo not shown) [Example 24, N-methyl-N-[2-(6-hydroxy-2,5,7,8-tetramethyl-3,4-dihydro2H-benzo[1,2-b]pyran-2-yl)ethyl]-4-guanidinocinnamamide hydrochloride]: 180 µM; `Cc1c(C)c2c(c(C)c1O)CCC(C)(CCOCc1ccc(CNC(=N)NN)cc1)O2` (stereo not shown) [Example 4, 4-(3-aminoguamidinomethyl)benzyl 2-(6-hydroxy-2,5,7,8-tetramethyl-3,4-dihydro-2H-benzo[1,2-b]pyran-2-yl)ethyl ether hydroiodide]: 150 µM; `Cc1c(C)c2c(c(C)c1O)CCC(C)(CCOc1ccc(NC(=N)N)cc1C(F)(F)F)O2` (stereo not shown) [5 (b), 2-trifluoromethyl-4-guanidinophenyl 2-(6-hydroxy-2,5,7,8-tetra-methyl-3,4-dihydro-2H-benzo[1,2-b]pyran-2-yl)ethyl ether hydrochloride]: 74 µM.
